Converted amounts (≈) assume the structure as drawn.

For experiment [1], the system named is Staphylococcus aureus. Kind of experiment: Antibacterial activity against methicillin resistant Staphylococcus aureus (MRSA). The experiment is classed as functional.
For another experiment, the system named is Moraxella catarrhalis. Put plainly: Antibacterial activity against Moraxella catarrhalis. The format is functional.
In experiment [2] the test system is Mus musculus. Kind of experiment: Efficacy of compound to protect the methicillin resistant Staphylococcus aureus infected murine iv administration. The experiment is classed as functional.
Another experiment has as its system Streptococcus agalactiae. Kind of experiment: Antibacterial activity against Streptococcus agalactiae. The experiment is classed as functional.
For experiment [3], the system named is Staphylococcus aureus. Put plainly: Antibacterial activity against methicillin susceptible Staphylococcus aureus (MSSA). The experiment is classed as functional.
Experiment [4] relates to Mus musculus. Put plainly: Efficacy of compound to protect the methicillin resistant […] infected murine sc administration. The format is functional.
For experiment [5], the system named is Streptococcus pyogenes (Streptococcus pyogenes). Put plainly: Antibacterial activity against Streptococcus pyogenes.
For a further experiment, the system named is Haemophilus influenzae. Put plainly: Antibacterial activity against […] influenzae. The experiment is classed as functional.
For another experiment, the system named is Enterococcus sp. Kind of experiment: Antibacterial activity against Enterococcus species. The experiment is classed as functional.
Experiment [6] relates to Mus musculus. Put plainly: Efficacy of compound to protect the methicillin resistant Staphylococcus aureus infected murine po administration. The format is functional.
In experiment [7] the test system is Streptococcus pneumoniae. Put plainly: Antibacterial activity against Streptococcus pneumoniae (PEN-R). The format is functional.
For experiment [8], the system named is Streptococcus pneumoniae. Put plainly: Antibacterial activity against Staphylococcus pneumoniae (PEN-R).

Broadly, the ED50 is the dose at which the effect has come halfway, by size or by number of responders. A low value points to greater potency. On to `COc1cc(Cc2cnc(N)nc2N)c2c(c1OC)OC(C1CC1)C=C2` (configuration not stated), for which the MIC90 in the experiment with Staphylococcus aureus [1] is 0.06 mg/L (≈ 0.169 µM); against Moraxella catarrhalis, 4 mg/L (≈ 11.3 µM); against Streptococcus agalactiae, 0.5 mg/L (≈ 1.41 µM); in the experiment on Staphylococcus aureus [3], 0.06 mg/L (≈ 0.169 µM); in [5], 0.03 mg/L (≈ 0.0846 µM); in the experiment with Haemophilus influenzae, 0.5 mg/L (≈ 1.41 µM). Besides, the figures for the MIC90 in the experiment with Enterococcus sp. and in the experiment with Streptococcus pneumoniae [7] were 0.12 mg/L (≈ 0.339 µM) and 4 mg/L (≈ 11.3 µM), respectively. Further, the ED50 with Mus musculus [2] was 4.3 mg/kg; in the experiment with Mus musculus [4], 20 mg/kg; in the experiment on Mus musculus [6], 17 mg/kg.

For `CC(=O)NC[C@H]1CN(c2ccc(N3CCOCC3)c(F)c2)C(=O)O1` [LINEZOLID], the MIC90 against Staphylococcus aureus [1] is 8 mg/L (≈ 23.7 µM); against Moraxella catarrhalis, 8 mg/L (≈ 23.7 µM); against Streptococcus agalactiae, 2 mg/L (≈ 5.93 µM); against Staphylococcus aureus [3], 8 mg/L (≈ 23.7 µM); in [5] it was 2 mg/L (≈ 5.93 µM); with Haemophilus influenzae, 64 mg/L (≈ 190 µM). Further, the MIC90 was found to be 4 mg/L (≈ 11.9 µM) with Enterococcus sp. and 2 mg/L (≈ 5.93 µM) with Streptococcus pneumoniae [7].

In the case of `COc1cc(Cc2cnc(N)nc2N)cc(OC)c1OC` [TRIMETHOPRIM], the MIC90 in the experiment on Staphylococcus aureus [1] was 8 mg/L (≈ 27.6 µM); with Moraxella catarrhalis, 128 mg/L (≈ 441 µM); against Streptococcus pneumoniae [8], over 128 mg/L; in the experiment with Streptococcus agalactiae, 128 mg/L (≈ 441 µM); in the experiment with Staphylococcus aureus [3], 16 mg/L (≈ 55.1 µM); in [5], 64 mg/L (≈ 220 µM). Also, the figures for the MIC90 against Haemophilus influenzae and in the experiment on Enterococcus sp. were 1 mg/L (≈ 3.44 µM) and 8 mg/L (≈ 27.6 µM), respectively. Moreover, the ED50 in the experiment with Mus musculus [2] came to 15 mg/kg; in the experiment with Mus musculus [4] it was 60 mg/kg.

For `CN[C@H](CC(C)C)C(=O)N[C@H]1C(=O)N[C@@H](CC(N)=O)C(=O)N[C@H]2C(=O)N[C@H]3C(=O)N[C@H](C(=O)N[C@H](C(=O)O)c4cc(O)cc(O)c4-c4cc3ccc4O)[C@H](O)c3ccc(c(Cl)c3)Oc3cc2cc(c3O[C@@H]2O[C@H](CO)[C@@H](O)[C@H](O)[C@H]2O[C@H]2C[C@](C)(N)[C@H](O)[C@H](C)O2)Oc2ccc(cc2Cl)[C@H]1O` [VANCOMYCIN], the MIC90 is 1 mg/L (≈ 0.69 µM) in the experiment with Staphylococcus aureus [1]; 64 mg/L (≈ 44.2 µM) in the experiment on Moraxella catarrhalis; 0.5 mg/L (≈ 0.345 µM) in the experiment on Streptococcus agalactiae; 1 mg/L (≈ 0.69 µM) in the experiment on Staphylococcus aureus [3]; 1 mg/L (≈ 0.69 µM) in experiment [5]; 128 mg/L (≈ 88.3 µM) with Haemophilus influenzae. Also, the results for the MIC90 with Enterococcus sp. and in the experiment with Streptococcus pneumoniae [7] were 2 mg/L (≈ 1.38 µM) and 1 mg/L (≈ 0.69 µM), respectively.

(Values after ChEMBL document CHEMBL1136461 (Bioorg Med Chem Lett, 2003).)
